According to publication PMC2952853 (Nucleic Acids Research, 2010):
pIC50: −log10 of the molar value.

Legend:
RutR (RutR-His6; YcdC) [1] = biological target: T1, RutR (RutR-His6; YcdC) (Escherichia coli, UniProt P0ACU2); type: binding; details: read-out: % inhibition at 100 μM
T1 sequence (P0ACU2 1-212): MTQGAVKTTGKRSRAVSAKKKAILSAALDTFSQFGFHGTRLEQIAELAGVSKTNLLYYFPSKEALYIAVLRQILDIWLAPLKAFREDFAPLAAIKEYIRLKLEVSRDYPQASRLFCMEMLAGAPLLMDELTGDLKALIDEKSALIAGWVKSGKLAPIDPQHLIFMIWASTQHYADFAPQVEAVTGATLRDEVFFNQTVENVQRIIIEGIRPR

RutR (RutR-His6; YcdC) [2] = biological target: T1, RutR (RutR-His6; YcdC); test: EMSA, inhibition of RutR binding to […]-labelled carP1

| Structure (SMILES) | inhibition at 100 µM (RutR (RutR-His6; YcdC) [1]) | pIC50 (RutR (RutR-His6; YcdC) [2]) |
| --- | --- | --- |
| Cc1c[nH]c(=O)[nH]c1=O [thymine] | ~50% | – |
| O=c1cc[nH]c(=O)[nH]1 [uracil] | – | ~7.00 |
